According to patent US6140051A, “Fluorescent dibenzazole derivatives and methods related thereto” (priority 1998, dated 2000):
Structures can show the parent of a compound that is named as a salt. Where two headings read alike, the source gives them in different places. {BBTE} = label added with the BBTE phosphoramidite

Key:
[1] = Fluorescence properties measured at pH about 10 in AttoPhos buffer; type: physicochemical
Method: * The fluorescence is measured at pH about 10 in AttoPhos buffer (JBL
Scientific, San Luis Obispo, CA).
In the following examples, NMR data were measured by a Bruker AC-300 300 MHz instrument; mass spectra were obtained on a VG Platform, Fisons Instruments; fluorescence data were obtained from a Perkin Elmer Luminescence Spectrometer, Model LS50B.

[2] = system: Lipase from Pseudomonas species; assay: Lipase activity towards BBT acyl derivatives; type: biochemical; conditions: 100 mM Tris HCl pH 8.0; Ex 440 nm, Em 550 nm; FIG. 5; text says 'lipases'
Method: (3) Esterase and Lipase: Buffer: 100 mM Tris. HCl, pH 8.0. Substrate Stock Solution: 2 mM acyl BBT dioxane solution. Enzymes: All enzymes were from Sigma: Esterase from Porcine Liver(E3 128); Lipase from Pseudomonas species ([…]); Lipase from Candida cylindracea ([…]). Dilute the enzyme by the buffer to the desired concentration before use. Instrument: Squoia-Tumer Fluorometer, Model 450. Excitation at 440 nm and Emission at 550 nm. Procedure: 1. Set the Fluorometer Gain to 200. 2. Set the Fluorometer Zero to 0 with the Tris buffer. 3. Set the Fluorometer Span to 1000 using JBL 10 ng BBT (FEY) standard solution. 4. Pipette 980 μl buffer to a glass test tube (Baxter, Cat. No. T1290-3). 5. Add 10 μl substrate stock solution and mix well. 6. Measure and record the blank reading. 7. Add 10 μl enzyme solution. 8. Take fluorescence reading every one minute for 3 minutes and record. 9. Calculate the fluorescence unit change (FU/min) by subtracting the first-minute reading from the second-minute reading. 10. Plot FU/min vs. enzyme concentration, u/L (FIG. 4 and FIG. 5).

[3] = system: Esterase from Porcine Liver; assay: Esterase activity towards BBT acyl derivatives; type: biochemical; conditions: 100 mM Tris HCl pH 8.0; Ex 440 nm, Em 550 nm; FIG. 4
Method: Buffer: 100 mM Tris. HCl, pH 8.0.
Substrate Stock Solution: 2 mM acyl BBT dioxane solution.
Enzymes: All enzymes were from Sigma: Esterase from Porcine Liver(E3 128); Lipase from Pseudomonas species (L9518); Lipase from Candida cylindracea (L1754). Dilute the enzyme by the buffer to the desired concentration before use.
Instrument: Squoia-Tumer Fluorometer, Model 450. Excitation at 440 nm and Emission at 550 nm.
1. Set the Fluorometer Gain to 200.
2. Set the Fluorometer Zero to 0 with the Tris buffer.
3. Set the Fluorometer Span to 1000 using JBL 10 ng BBT (FEY) standard solution.
4. Pipette 980 μl buffer to a glass test tube (Baxter, Cat. No. T1290-3).
5. Add 10 μl substrate stock solution and mix well.
6. Measure and record the blank reading.
7. Add 10 μl enzyme solution.
8. Take fluorescence reading every one minute for 3 minutes and record.
9. Calculate the fluorescence unit change (FU/min) by subtracting the first-minute reading from the second-minute reading.
10. Plot FU/min vs. enzyme concentration, u/L (FIG. 4 and FIG. 5).

[4] = background, known fluorophores; cited from earlier work
[5] = aqueous; cited from earlier work
[6] = biological target: T1, alkaline phosphatase (Calf Intestine) (Bos taurus, UniProt P19111); assay: Enzymatic activity test, alkaline phosphatase; type: biochemical; conditions: 1 mg in 10 ml AttoPhos buffer
T1 construct: purchased Calzyme, San Luis Obispo, Calif; host or cells: calf intestine
T1 sequence (P19111 20-506 limits assumed): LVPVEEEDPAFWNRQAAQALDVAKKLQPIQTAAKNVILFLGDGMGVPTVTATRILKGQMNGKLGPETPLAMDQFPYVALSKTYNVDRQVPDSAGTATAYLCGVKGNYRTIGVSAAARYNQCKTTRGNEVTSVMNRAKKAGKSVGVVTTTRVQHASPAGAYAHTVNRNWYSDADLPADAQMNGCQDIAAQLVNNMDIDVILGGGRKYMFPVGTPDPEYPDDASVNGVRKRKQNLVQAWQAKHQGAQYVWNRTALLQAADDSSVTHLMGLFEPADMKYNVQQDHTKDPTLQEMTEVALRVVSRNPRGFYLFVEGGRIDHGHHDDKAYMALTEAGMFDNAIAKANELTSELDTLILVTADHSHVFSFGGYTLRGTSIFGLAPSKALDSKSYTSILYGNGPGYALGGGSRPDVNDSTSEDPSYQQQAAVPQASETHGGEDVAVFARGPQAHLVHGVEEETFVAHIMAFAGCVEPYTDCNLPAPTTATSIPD
Method: (1) Alkaline Phosphatase: 1 mg BEBTP was dissolved in 10 ml AttoPhos buffer (JBL Scientific, San Luis Obispo, Calif.). A small quantity of alkaline phosphatase (Calf Intestine, Calzyme, San Luis Obispo, Calif.) was added.

[7] = pH dependence of fluorescence; type: physicochemical
Text: To make the phenolic fluorophore fully fluorescent at a lower pH (7-8) to achieve the best performance for some enzymatic and biological assays, some fluorophores are synthesized with electronegative substituent(s), e.g., chloride, bromide, iodide, fluoride, trifluoromethyl, --SO3 H, etc. These substituted derivatives may be analyzed at different pH's for their fluorescent efficiency. The dependence of fluorescent intensity on pH for some preferred compounds of the invention, and comparative compounds, are shown in FIG. 3. Compared to the unsubstituted compound, BBT (also shown in the graph, U.S. Pat. No. 5,424,440), the electronegatively substituted BBT derivatives, especially CIBBT, can reach their maximum fluorescence at a pH very close to physiological conditions (pH 7-8). The pH dependent characteristic change of fluorescent intensity of these fluorophores can also find applications as pH titration fluorescent indicators.

[8] = phenolic hydroxyl; cited from earlier work
[9] = cited from earlier work
[10] = Fluorescence of labeled oligonucleotide on DNA electrophoresis gel; conditions: versus non-labeled oligonucleotide
Text: (4) Fluorescence: The labeled BBTE-[…] (SEQ ID NO: 1) was separated on a standard DNA electrophoresis gel, along with the non-labeled […] (SEQ ID NO: 1).

β-galactosidase = biological target: T2, β-galactosidase (Escherichia coli, UniProt P00722); assay: Enzymatic activity test, β-galactosidase; type: biochemical, E. Coli; conditions: 1 mg in 10 ml 0.1 M potassium phosphate buffer pH 7, 10 mM DTT, 1 mM MgCl2
T2 construct: purchased ICN Biomedicals, Inc. 104939; host or cells: E. Coli
T2 sequence (P00722 2-1024): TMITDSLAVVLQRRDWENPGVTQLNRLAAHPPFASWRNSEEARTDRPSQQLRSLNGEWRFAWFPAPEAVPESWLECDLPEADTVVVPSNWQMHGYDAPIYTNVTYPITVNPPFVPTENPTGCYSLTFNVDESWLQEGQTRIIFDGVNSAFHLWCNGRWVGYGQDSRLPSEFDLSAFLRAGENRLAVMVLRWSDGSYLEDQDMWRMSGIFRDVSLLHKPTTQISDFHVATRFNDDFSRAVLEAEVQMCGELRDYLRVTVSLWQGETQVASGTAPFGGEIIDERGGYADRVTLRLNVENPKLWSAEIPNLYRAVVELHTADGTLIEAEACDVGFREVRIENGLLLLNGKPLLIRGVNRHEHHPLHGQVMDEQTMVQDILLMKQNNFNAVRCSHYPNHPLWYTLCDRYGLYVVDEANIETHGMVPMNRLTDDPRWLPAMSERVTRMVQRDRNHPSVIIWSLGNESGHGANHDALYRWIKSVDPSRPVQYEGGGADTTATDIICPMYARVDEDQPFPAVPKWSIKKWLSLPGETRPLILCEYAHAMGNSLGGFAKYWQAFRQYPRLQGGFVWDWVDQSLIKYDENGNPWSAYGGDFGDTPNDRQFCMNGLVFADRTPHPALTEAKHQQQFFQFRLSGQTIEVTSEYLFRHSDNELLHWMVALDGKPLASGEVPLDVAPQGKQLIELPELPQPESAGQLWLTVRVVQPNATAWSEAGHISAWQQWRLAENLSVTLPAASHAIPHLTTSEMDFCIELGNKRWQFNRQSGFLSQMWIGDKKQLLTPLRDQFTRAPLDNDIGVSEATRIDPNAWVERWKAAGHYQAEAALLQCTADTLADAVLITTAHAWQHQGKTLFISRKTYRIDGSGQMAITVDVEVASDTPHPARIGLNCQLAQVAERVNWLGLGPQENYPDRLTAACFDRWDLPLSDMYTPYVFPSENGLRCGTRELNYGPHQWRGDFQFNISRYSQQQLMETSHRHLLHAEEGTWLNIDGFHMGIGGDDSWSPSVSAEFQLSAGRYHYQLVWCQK
Method: (2) β-Galactosidase: 1 mg BEBTESG was dissolved in 10 ml 0.1 M potassium phosphate buffer (pH 7) containing 10 mM DTT and 1 mM MgCl2 and a small quantity of β-galactosidase (Cat. No. 104939, E. Coli, ICN Biomedicals, Inc.) was added.

## Oc1ccc2nc(/C=C/c3nc4c(ccc5ccccc54)o3)sc2c1 [α-BENO]
[1]; Table 2
  EM: 585 nm
  EX: 432 nm
  Stokes Shift: 153 nm

## CCCCCCCC/C=C\CCCCCCCC(=O)Oc1ccc2nc(-c3nc4ccccc4s3)sc2c1 [oleoyl BBT, 2'-(2-Benzothiazolyl)-6'-hydroxybenzothiazole Oleate]
[2]
  substrate activity for lipases: high activity
[3]
  substrate activity for porcine liver esterase: low activity

## O=S(=O)(O)c1c(O)ccc2nc(-c3nc4ccccc4s3)sc12 [SBBT]
[1]; Table 1
  EM: 538 nm
  EX: 420 nm
  Stokes Shift: 118 nm

## CCN1C(=CC=Cc2oc3ccccc3[n+]2CCCCCC(=O)[O-])Oc2ccccc21 [Cy2]
[4]
  Stokes Shift: 18 nm
  λEM (wavelength of maximum emission): 506 nm
  λEX (wavelength of maximum excitation): 489 nm

## OCCc1ccc2nc(-c3nc4ccc(O)cc4s3)sc2c1 [BBTE]
[1]; Table 1
  EM: 550 nm
  EX: 422 nm
  Stokes Shift: 128 nm

## O=C(Cc1ccc2nc(-c3nc4ccc(O)cc4s3)sc2c1)NCCS(=O)(=O)O [BBTAAT]
[1]; Table 1
  EM: 548 nm
  EX: 430 nm
  Stokes Shift: 118 nm

## OC[C@H]1O[C@@H](Oc2ccc3nc(-c4nc5ccccc5s4)sc3c2)[C@H](O)[C@@H](O)[C@H]1O [galactoside of BBT]
[5]
  solubility: less than 1 mM

## Oc1ccc2nc(/C=C/c3nc4c(ccc5ccccc54)s3)sc2c1 [α-BENT]
[1]; Table 2
  EM: 624 nm
  EX: 443 nm
  Stokes Shift: 181 nm

## Oc1ccc2nc(/C=C/c3nc4ccccc4s3)sc2c1 [BEBT, 2'-(2-benzothiazolylethenyl)-6'-hydroxybenzothiazole]
[1]; Table 2
  EM: 620 nm
  EX: 440 nm
  Stokes Shift: 180 nm

## Oc1ccc2nc(-c3ccccc3)oc2c1 [2-Phenyl-6-hydroxybenzoxazole]
[4]
  Stokes Shift: 110 nm
  λEM (wavelength of maximum emission): 460 nm
  λEX (wavelength of maximum excitation): 370 nm

## Oc1ccc2nc(/C=C/c3nc4ccccc4o3)sc2c1 [BEBO, 2'-(2-benzoxazolylethenyl)-6'-hydroxybenzothiazole]
[1]; Table 2
  EM: 604 nm
  EX: 438 nm
  Stokes Shift: 166 nm

## Cc1cc(=O)oc2cc(O)ccc12 [4-Methylumbelliferone]
[4]
  Stokes Shift: 82 nm
  λEM (wavelength of maximum emission): 449 nm
  λEX (wavelength of maximum excitation): 367 nm

## CCN(CC)c1ccc2c(-c3ccccc3C(=O)O)c3ccc(=[N+](CC)CC)cc-3oc2c1 [Rhodamine]
[4]
  Stokes Shift: 35 nm
  λEM (wavelength of maximum emission): 575 nm
  λEX (wavelength of maximum excitation): 540 nm

## O=P(O)(O)Oc1ccc2nc(/C=C/c3nc4ccccc4s3)sc2c1 [BEBTP, 2'-(2-Benzothiazolylethenyl)-6'-hydroxybenzothiazole phosphate di(2-amino-2-methyl 1,3-propanediol) salt]
[6]
  fluorescence on hydrolysis by alkaline phosphatase: orange red fluorescence was quickly developed

## Oc1ccc2nc(-c3nc4ccccc4s3)sc2c1F [FBBT, 2'-(2-Benzothiazolyl)-7'-fluoro-6'-hydroxybenzothiazole]
[1]; Table 1
  EM: 552 nm
  EX: 423 nm
  Stokes Shift: 129 nm

## O=C(O)Cc1ccc2nc(-c3nc4ccc(O)c(Cl)c4s3)sc2c1 [CIBBTAA, 2'-(7-Chloro-6-hydroxybenzothiazol-2-yl)-benzothiazole-6'-acetic acid]
[1]; Table 1
  EM: 545 nm
  EX: 437 nm
  Stokes Shift: 108 nm

## Oc1ccc2nc(-c3nc4ccccc4s3)sc2c1Cl [CIBBT, 2'-(Benzothiazol-2-yl)-7'-chloro-6'-hydroxybenzothiazole]
[1]; Table 1
  EM: 550 nm
  EX: 435 nm
  Stokes Shift: 115 nm
[7]; FIG. 3
  pH at which maximum fluorescence is reached: 7-8 pH

## O=C(O)Cc1ccc2nc(-c3nc4ccc(O)cc4s3)sc2c1 [BBTAA, 2'-(6-Hydroxybenzothiazol-2-yl)-benzothiazole-6'-acetic acid]
[1]; Table 1
  EM: 549 nm
  EX: 430 nm
  Stokes Shift: 119 nm

## Oc1ccc2nc(-c3nc4ccccc4s3)sc2c1 [BBT, 2'-(2-Benzothiazolyl)-6'-hydroxy-benzothiazole]
[4]
  Stokes Shift: 142 nm
  λEM (wavelength of maximum emission): 561 nm
  λEX (wavelength of maximum excitation): 419 nm
[8]
  pKa: 8.5
[9]; pH 10.3 (ALP assay)
  ionization state (fluorescence): fully ionized
[9]; pH range of 6.0 to 8.0
  ionization state (fluorescence): only partially ionized
[7]
  pH at which the compound fully fluoresces: 9-10 pH

## CCC(=O)Oc1ccc2nc(-c3nc4ccccc4s3)sc2c1 [Propionyl BBT, 2'-(2-Benzothiazolyl)-6'-hydroxybenzothiazole Propionate]
[2]
  substrate activity for lipases: very poor substrate
[3]
  substrate activity for porcine liver esterase: very effective substrate

## O=C1OC2(c3ccc(O)cc3Oc3cc(O)ccc32)c2ccccc21 [Fluorescein]
[4]
  Stokes Shift: 28 nm
  λEM (wavelength of maximum emission): 520 nm
  λEX (wavelength of maximum excitation): 492 nm

## Oc1ccc2nc(/C=C/c3nc4ccc5ccccc5c4o3)sc2c1 [β-BENO]
[1]; Table 2
  EM: 602 nm
  EX: 443 nm
  Stokes Shift: 159 nm

## BBTE-TCTCCCAGCGTGCGCCAT: oligonucleotide (SEQ ID NO: 1) labeled at the 5'-end with the BBTE phosphoramidite (5' {BBTE}, sugars by position and backbone not given here)
[10]
  fluorescence on DNA electrophoresis gel: strong yellow fluorescent band

## O=S(=O)(O)CCc1ccc2nc(/C=C/c3nc4ccc(O[C@@H]5O[C@H](CO)[C@H](O)[C@H](O)[C@H]5O)cc4s3)sc2c1 [BEBTESG, 2'-((6-Sulfoethyl-2-benzothiazolyl)ethenyl)-6'-hydroxybenzothiazole β-D-Galactoside]
β-galactosidase
  fluorescence on hydrolysis by β-galactosidase: orange red fluorescence was quickly developed
